Results reported in patent publication EP0363589A2, “Somatostatin analogues” (SYNTEX (U.S.A.) INC., priority 1988, dated 1990).

How the values were obtained:
[1] = tested on: insulin-induced glucagon release; test: Insulin-induced glucagon assay; assay type: in vivo; conditions: derived from the glucagon and insulin assays in rats
Procedure: After several days of acclimatization, rats were weigh-grouped and used on the succeeding one to three days. The rats were injected subcutaneously with 40 mg/kg pentobarbitol(Nembutal). Approximately 30 minutes after injection, the jugular and the hepatic portal veins were exposed and an injection of 0.1% bovine serum albumin (BSA)-saline vehicle or 1 IU/1 ml/kg porcine insulin in the same vehicle was administered into the jugular vein. At precisely 15 minutes after the intravenous (i.v.)injection a 1 ml blood sample was collected from the hepatic portal vein and the rat sacrificed with C02.
The blood sample was collected into a syringe containing 0.70 mg Na-EDTA and 0.1 mg Aprotinin, a commercially available protease inhibitor, in 0.1 ml 0.9% saline. The blood sample was mixed in the syringe and transferred to a plastic microcontainer serum-separator tube and held in the dark on ice. Plasma was harvested within 6 hours by centrifugation and stored at -20°C. The test material was administered intramuscularly to the animal immediately prior to the i.v. injection of insulin. Plasma samples were analyzed for levels of glucagon using a commercially available radioimmuneassay kit for animal glucagon (Cambridge Medical Technology). […]

growth hormone = test: Nembutal-induced growth hormone assay; assay type: in vivo, male rats; conditions: derived from the growth hormone and insulin assays in rats
Procedure: After several days of acclimatization, male rats were weight-grouped and used on the succeeding one to three days. The rats were fasted the day prior to use. Each test rat was given an intramuscular (IM) injection of test compound or vehicle (0.1 % BSA-saline) into the right rear leg.
Immediately following the IM injection, a subcutaneous injection of Nembutal (60 mg/kg) was given. Thirteen minutes after Nembutal administration, each rat was exposed to 2 minutes of ether anesthesia followed by the collection of a 1 ml blood sample via the ocular orbit. Serum separator tubes were used to prepare serum from the blood samples. The serum samples were stored at -20°C until analysis by radioimmune assay. The mean percent inhibition of growth hormone was determined for the test compounds using the method as described in Examples 4 and 5 and the EDso derived.

Substance: Sandostatin
- Relative selectivities for glucagon/insulin [1]: 11
- Relative selectivities for growth hormone/insulin (growth hormone): 103
